Reference: PMC2692652 (Biochemistry, 2009)

What was measured:
H447A M. tb PGDH [1] = target: T1, H447A M. tb PGDH (Mycobacterium tuberculosis, UniProt P9WNX3, H446A); type: biochemical; settings: pH 7.5
R446A M. tb PGDH [2] = target: T2, R446A M. tb PGDH (Mycobacterium tuberculosis, UniProt P9WNX3, R445A); type: biochemical; settings: pH 7.5
R451A M. tb PGDH = R451A M. tb PGDH (Mycobacterium tuberculosis, UniProt P9WNX3, R450A); type: biochemical; settings: pH 7.5
R501A M. tb PGDH [3] = target: T3, R501A M. tb PGDH (Mycobacterium tuberculosis, UniProt P9WNX3, R500A); type: biochemical; settings: pH 7.5
K439A M. tb PGDH [4] = target: T4, K439A M. tb PGDH (Mycobacterium tuberculosis, UniProt P9WNX3, K438A); type: biochemical; settings: pH 7.5
[5] = target: R446A-R501A-K439A M. tb PGDH (Mycobacterium tuberculosis, UniProt P9WNX3, K438A/R445A/R500A); type: biochemical; settings: pH 7.5
[6] = target: T5, R451A-R501A-K439A M. tb PGDH (Mycobacterium tuberculosis, UniProt P9WNX3, K438A/R450A/R500A); type: biochemical
[7] = tested on: native and mutant M. tb PGDH; assay: NADH dependence of steady state activity, summary over enzymes; type: biochemical, Mycobacterium tuberculosis
W327F M. tb PGDH [8] = target: T6, W327F M. tb PGDH (Mycobacterium tuberculosis, UniProt P9WNX3, W326F); type: biochemical; settings: pH 7.5
[9] = target: T5, R451A-R501A-K439A M. tb PGDH; type: biochemical; settings: pH 7.5
W29F M. tb PGDH [10] = target: T7, W29F M. tb PGDH (Mycobacterium tuberculosis, UniProt P9WNX3, W28F); type: biochemical; settings: pH 7.5
W327F M. tb PGDH [11] = target: T6, W327F M. tb PGDH; type: binding; settings: pH 7.5
[12] = target: T5, R451A-R501A-K439A M. tb PGDH; type: binding; settings: pH 7.5
W29F M. tb PGDH [13] = target: T7, W29F M. tb PGDH; type: binding; settings: pH 7.5
R446A M. tb PGDH [14] = target: T2, R446A M. tb PGDH; settings: read-out: Ki, HPAP (substrate inhibition); cited from earlier work
K439A M. tb PGDH [15] = target: T4, K439A M. tb PGDH; settings: read-out: Ki, HPAP (substrate inhibition); cited from earlier work
H447A M. tb PGDH [16] = target: T1, H447A M. tb PGDH; settings: read-out: Ki, HPAP (substrate inhibition); cited from earlier work
R501A M. tb PGDH [17] = target: T3, R501A M. tb PGDH; settings: read-out: Ki, HPAP (substrate inhibition); cited from earlier work

Question: Which results are given for `N[C@@H](CO)C(=O)O` [L-serine]?
Answer: n (Hill coefficient), serine inhibition, High Substrate (H447A M. tb PGDH [1]): 1.5 ± 0.1; n (Hill coefficient), serine inhibition, Peak Substrate (H447A M. tb PGDH [1]): 1.7 ± 0.1; n (Hill coefficient), serine inhibition, High Substrate (R446A M. tb PGDH [2]): 0.9 ± 0.1; n (Hill coefficient), serine inhibition, Peak Substrate (R446A M. tb PGDH [2]): 1.3 ± 0.1; n (Hill coefficient), serine inhibition, High Substrate (R451A M. tb PGDH): 1.7 ± 0.3; n (Hill coefficient), serine inhibition, Peak Substrate (R451A M. tb PGDH): 1.6 ± 0.1; n (Hill coefficient), serine inhibition, High Substrate (R501A M. tb PGDH [3]): 1.7 ± 0.1; n (Hill coefficient), serine inhibition, Peak Substrate (R501A M. tb PGDH [3]): 1.5 ± 0.1; n (Hill coefficient), serine inhibition, High Substrate (K439A M. tb PGDH [4]): 1.2 ± 0.1; n (Hill coefficient), serine inhibition, Peak Substrate (K439A M. tb PGDH [4]): 1.2 ± 0.1; n (Hill coefficient), serine inhibition, Peak Substrate [5]: 1.0 ± 0.1; Inhibition of catalytic activity by serine [6]: unable to be inhibited

Question: Which results are given for NADH?
Answer: K0.5 for NADH for activity [7]: 80 to 100 mM; K0.5, Activity vs NADH (W327F M. tb PGDH [8]): 89 ± 4 µM; n (Hill coefficient), Activity vs NADH (W327F M. tb PGDH [8]): 2.0 ± 0.1; K0.5, Activity vs NADH [9]: 83 ± 13 µM; n (Hill coefficient), Activity vs NADH [9]: 1.5 ± 0.2; K0.5, Activity vs NADH (W29F M. tb PGDH [10]): 99 ± 2 µM; n (Hill coefficient), Activity vs NADH (W29F M. tb PGDH [10]): 2.2 ± 0.1; K0.5, FRET vs NADH (W327F M. tb PGDH [11]): 3.0 ± 0.3 µM; n (Hill coefficient), FRET vs NADH (W327F M. tb PGDH [11]): 1.7 ± 0.3; K0.5, FRET vs NADH [12]: 3.6 ± 0.1 µM; n (Hill coefficient), FRET vs NADH [12]: 2.3 ± 0.2; K0.5, FRET vs NADH (W29F M. tb PGDH [13]): 1.9 ± 0.1 µM; n (Hill coefficient), FRET vs NADH (W29F M. tb PGDH [13]): 1.2 ± 0.1

Question: Which results are given for hydroxypyruvic acid phosphate [HPAP]?
Answer: Ki (R446A M. tb PGDH [14]): 289 ± 15 µM; Ki (K439A M. tb PGDH [15]): 54 ± 4 µM; Ki (H447A M. tb PGDH [16]): 870 ± 50 µM; Ki (R501A M. tb PGDH [17]): 1020 ± 30 µM
